Measured values reported in ChEMBL document CHEMBL4177618, “Design and synthesis of a novel series of (1'S,2R,4'S)-3H-4'-azaspiro[benzo[4,5]imidazo[2,1-b]oxazole-2,2'-bicyclo[2.2.2]octanes] with high affinity for the α7 neuronal nicotinic receptor” (Bioorg Med Chem Lett, 2017).

What was measured:
[1] = Selectivity ratio of IC50 for human 5-HT3A receptor expressed in HEK293 cells to EC50 for rat alpha7 nAChR expressed in HEK293 cells; format: cell-based
[2] = biological target: T1, Neuronal acetylcholine receptor subunit alpha-7 (Rattus norvegicus, UniProt Q05941); assay: Agonist activity at rat alpha7 nAChR expressed in HEK293 cells co-expressing human RIC-3 assessed as increase in calcium flux measured for 2 mins by Fluo-4 AM dye based FLIPR assay; format: cell-based
[3] = biological target: T2, 5-hydroxytryptamine receptor 3A (Homo sapiens, UniProt P46098); assay: Antagonist activity at human 5-HT3A receptor expressed in HEK293 cells assessed as inhibition of 5-HT-induced calcium flux preincubated for 30 mins prior to 5-HT addition by Fluo-4 AM dye based FLIPR assay; format: cell-based
T2 sequence (P46098 whole entry): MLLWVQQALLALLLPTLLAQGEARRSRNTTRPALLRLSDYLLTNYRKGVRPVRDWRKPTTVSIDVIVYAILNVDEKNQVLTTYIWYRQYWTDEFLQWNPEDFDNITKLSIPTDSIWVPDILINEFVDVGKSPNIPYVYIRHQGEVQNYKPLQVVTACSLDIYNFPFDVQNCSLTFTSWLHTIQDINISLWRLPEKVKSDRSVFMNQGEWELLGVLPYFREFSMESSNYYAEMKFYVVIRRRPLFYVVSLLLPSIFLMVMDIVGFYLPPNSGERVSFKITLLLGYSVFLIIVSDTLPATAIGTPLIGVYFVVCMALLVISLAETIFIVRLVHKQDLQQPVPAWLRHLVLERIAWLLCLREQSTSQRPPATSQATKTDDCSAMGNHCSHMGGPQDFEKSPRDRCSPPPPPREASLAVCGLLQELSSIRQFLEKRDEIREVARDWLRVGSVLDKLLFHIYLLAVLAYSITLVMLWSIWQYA

[4] = biological target: T1, Neuronal acetylcholine receptor subunit alpha-7; assay: Displacement of [125I]alpha-bungarotoxin from rat alpha7 nAChR expressed in HEK293 cell membranes after 2 hrs by topcount scintillation counting analysis
[5] = biological target: T2, 5-hydroxytryptamine receptor 3A; assay: Binding affinity to 5-HT3A receptor (unknown origin)
[6] = biological target: Neuronal acetylcholine receptor subunit alpha-7 (Homo sapiens, UniProt P36544); assay: Binding affinity to human alpha7 nAChR
[7] = biological target: Neuronal acetylcholine receptor; alpha3/beta4 (Rattus norvegicus, UniProt P04757+P12392); assay: Agonist activity at rat alpha3beta4 nAChR expressed in HEK293 cells assessed as increase in calcium flux measured for 2 mins by Fluo-4-AM dye based FLIPR assay; format: cell-based
[8] = biological target: Neuronal acetylcholine receptor; alpha4/beta2 (Rattus norvegicus, UniProt P09483+P12390); assay: Agonist activity at rat alpha4beta2 nAChR expressed in HEK293 cells assessed as increase in calcium flux measured for 2 mins by Fluo-4-AM dye based FLIPR assay; format: cell-based
[9] = Agonist activity at rat alpha1beta1deltaepsilon nAChR expressed in HEK293 cells assessed as increase in calcium flux measured for 2 mins by Fluo-4-AM dye based FLIPR assay; format: cell-based; settings: HEK293, 2 min

T1 sequence (Q05941 whole entry): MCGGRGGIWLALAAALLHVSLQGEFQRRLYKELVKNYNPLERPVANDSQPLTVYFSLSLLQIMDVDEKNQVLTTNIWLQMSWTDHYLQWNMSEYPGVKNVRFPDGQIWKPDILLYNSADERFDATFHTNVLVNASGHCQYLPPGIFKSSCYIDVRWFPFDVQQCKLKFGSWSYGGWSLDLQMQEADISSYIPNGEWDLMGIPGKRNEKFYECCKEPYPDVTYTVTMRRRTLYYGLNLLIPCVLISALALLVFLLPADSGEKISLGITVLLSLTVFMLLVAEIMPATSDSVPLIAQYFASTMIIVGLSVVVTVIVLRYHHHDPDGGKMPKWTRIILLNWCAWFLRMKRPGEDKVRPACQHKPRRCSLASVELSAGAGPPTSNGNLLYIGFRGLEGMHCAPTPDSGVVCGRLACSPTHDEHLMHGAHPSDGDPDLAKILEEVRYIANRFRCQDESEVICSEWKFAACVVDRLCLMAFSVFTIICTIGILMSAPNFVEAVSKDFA
Chain of Neuronal acetylcholine receptor; alpha3/beta4 (P04757 whole entry): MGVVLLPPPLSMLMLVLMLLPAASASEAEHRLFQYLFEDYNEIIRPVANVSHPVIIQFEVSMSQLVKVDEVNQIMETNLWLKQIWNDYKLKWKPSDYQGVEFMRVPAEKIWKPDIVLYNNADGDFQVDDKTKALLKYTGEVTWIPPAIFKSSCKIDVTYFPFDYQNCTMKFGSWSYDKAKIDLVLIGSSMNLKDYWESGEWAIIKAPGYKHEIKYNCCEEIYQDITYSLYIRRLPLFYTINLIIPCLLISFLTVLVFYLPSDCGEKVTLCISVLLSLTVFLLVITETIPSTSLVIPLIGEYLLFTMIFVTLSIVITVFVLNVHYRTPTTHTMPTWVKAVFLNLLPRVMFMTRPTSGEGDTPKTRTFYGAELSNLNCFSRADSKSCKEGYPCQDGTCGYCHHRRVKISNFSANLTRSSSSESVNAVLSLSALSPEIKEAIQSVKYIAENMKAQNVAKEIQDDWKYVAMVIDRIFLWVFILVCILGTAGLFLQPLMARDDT
Chain of Neuronal acetylcholine receptor; alpha3/beta4 (P12392 whole entry): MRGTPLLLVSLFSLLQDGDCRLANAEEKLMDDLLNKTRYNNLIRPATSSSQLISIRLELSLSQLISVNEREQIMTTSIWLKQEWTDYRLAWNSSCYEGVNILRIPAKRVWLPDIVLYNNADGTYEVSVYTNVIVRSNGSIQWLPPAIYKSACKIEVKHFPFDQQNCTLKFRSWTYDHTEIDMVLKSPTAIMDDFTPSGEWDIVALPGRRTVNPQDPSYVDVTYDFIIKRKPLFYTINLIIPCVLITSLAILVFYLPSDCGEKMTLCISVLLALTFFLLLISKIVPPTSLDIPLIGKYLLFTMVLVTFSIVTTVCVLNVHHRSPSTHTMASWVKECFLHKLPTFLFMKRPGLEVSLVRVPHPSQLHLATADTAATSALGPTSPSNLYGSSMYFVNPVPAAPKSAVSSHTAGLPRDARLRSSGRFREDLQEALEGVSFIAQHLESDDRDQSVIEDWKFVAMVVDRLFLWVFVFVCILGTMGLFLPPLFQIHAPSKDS
Chain of Neuronal acetylcholine receptor; alpha4/beta2 (P09483 whole entry): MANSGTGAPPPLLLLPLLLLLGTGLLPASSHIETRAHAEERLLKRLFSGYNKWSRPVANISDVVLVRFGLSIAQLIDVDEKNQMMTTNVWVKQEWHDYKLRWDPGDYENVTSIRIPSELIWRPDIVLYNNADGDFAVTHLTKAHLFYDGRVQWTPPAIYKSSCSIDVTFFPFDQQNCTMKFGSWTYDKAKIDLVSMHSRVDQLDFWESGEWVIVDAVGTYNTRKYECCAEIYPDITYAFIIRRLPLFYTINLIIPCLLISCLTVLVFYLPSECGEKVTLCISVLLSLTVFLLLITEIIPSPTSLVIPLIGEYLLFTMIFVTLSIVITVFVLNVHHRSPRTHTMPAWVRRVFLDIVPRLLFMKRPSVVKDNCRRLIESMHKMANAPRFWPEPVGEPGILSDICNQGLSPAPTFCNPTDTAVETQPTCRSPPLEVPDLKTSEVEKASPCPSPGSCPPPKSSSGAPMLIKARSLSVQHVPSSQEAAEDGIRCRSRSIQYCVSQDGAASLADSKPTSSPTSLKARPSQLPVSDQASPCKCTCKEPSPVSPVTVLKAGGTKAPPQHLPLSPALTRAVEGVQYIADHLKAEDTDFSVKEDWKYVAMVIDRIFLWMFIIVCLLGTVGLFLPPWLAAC
Chain of Neuronal acetylcholine receptor; alpha4/beta2 (P12390 whole entry): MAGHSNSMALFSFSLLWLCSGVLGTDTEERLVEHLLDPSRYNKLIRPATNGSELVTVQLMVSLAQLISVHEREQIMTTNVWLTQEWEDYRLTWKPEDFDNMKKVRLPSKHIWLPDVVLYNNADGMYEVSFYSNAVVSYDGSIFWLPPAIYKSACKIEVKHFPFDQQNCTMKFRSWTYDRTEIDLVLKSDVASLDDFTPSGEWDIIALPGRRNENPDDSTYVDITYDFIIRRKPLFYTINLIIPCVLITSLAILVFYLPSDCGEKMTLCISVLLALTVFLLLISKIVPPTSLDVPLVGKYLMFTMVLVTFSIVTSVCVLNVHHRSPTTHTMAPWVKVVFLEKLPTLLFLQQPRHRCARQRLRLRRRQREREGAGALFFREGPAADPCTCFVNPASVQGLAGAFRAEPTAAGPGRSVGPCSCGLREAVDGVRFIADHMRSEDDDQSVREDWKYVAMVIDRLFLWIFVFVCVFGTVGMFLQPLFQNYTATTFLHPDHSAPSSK
Chain of Neuronal acetylcholine receptor subunit alpha-7 (Homo sapiens, UniProt P36544) (P36544 whole entry): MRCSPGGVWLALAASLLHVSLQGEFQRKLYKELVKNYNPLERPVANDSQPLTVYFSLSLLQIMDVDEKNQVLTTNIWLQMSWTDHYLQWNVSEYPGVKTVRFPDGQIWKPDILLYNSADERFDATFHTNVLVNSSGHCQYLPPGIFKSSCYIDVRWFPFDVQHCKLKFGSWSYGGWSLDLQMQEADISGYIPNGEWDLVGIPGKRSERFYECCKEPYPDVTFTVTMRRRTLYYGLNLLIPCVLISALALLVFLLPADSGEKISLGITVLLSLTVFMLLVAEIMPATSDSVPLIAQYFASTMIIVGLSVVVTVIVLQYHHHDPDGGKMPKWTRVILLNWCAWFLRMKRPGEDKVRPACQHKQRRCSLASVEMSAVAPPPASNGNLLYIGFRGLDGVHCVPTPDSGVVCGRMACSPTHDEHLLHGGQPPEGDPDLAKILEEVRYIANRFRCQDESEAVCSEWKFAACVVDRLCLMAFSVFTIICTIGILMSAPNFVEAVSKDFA

SMILES	Ratio IC50/EC50 [1]	EC50 [2] [nM]	IC50 [3] [nM]	other results
Cc1cccc2c1nc1n2C[C@@]2(CN3CCC2CC3)O1	1	7	7	–
FC(F)(F)c1ccc2c(c1)nc1n2C[C@@]2(CN3CCC2CC3)O1	51	13	660	–
Clc1cccc2nc3n(c12)C[C@@]1(CN2CCC1CC2)O3	0.04	268	11	–
FC(F)(F)c1ccc2nc3n(c2c1)C[C@@]1(CN2CCC1CC2)O3	0.25	69	17	–
c1cnc2c(c1)C[C@@]1(CN3CCC1CC3)O2 [AZD0328]	–	–	–	Ki [4]: 5 nM
Cc1ccc2c(c1)nc1n2C[C@@]2(CN3CCC2CC3)O1	2.6	5	13	–
Brc1nc2n(c1Br)C[C@]1(CN3CCC1CC3)O2	–	4030	9700	–
COc1ccc2c(c1)nc1n2C[C@@]2(CN3CCC2CC3)O1	1.6	7	11	–
Cc1ccc2nc3n(c2c1)C[C@@]1(CN2CCC1CC2)O3	0.2	33	6	–
Clc1ccc2nc3n(c2c1)C[C@@]1(CN2CCC1CC2)O3	0.6	14	9	–
Clc1ccc2c(c1)nc1n2C[C@@]2(CN3CCC2CC3)O1	0.2	31	6	–
Brc1nc2n(c1Br)C[C@@]1(CN3CCC1CC3)O2	–	19	43	–
c1ccc2c(c1)nc1n2C[C@]2(CN3CCC2CC3)O1	2	6400	13000	–
c1ccc(-c2cnc3c(c2)C[C@@]2(CN4CCC2CC4)O3)cc1	–	–	–	Ki [5]: 2 nM; Ki [6]: 2 nM
Brc1nc2n(c1Br)CC1(CN3CCC1CC3)O2 (racemic)	–	32	62	–
COc1ccc(-c2cccc3c2nc2n3C[C@@]3(CN4CCC3CC4)O2)cc1	400	26	10400	–
c1ccc2c(c1)nc1n2C[C@@]2(CN3CCC2CC3)O1	1.4	11	15	EC50 [7]: > 100000 nM; EC50 [8]: > 100000 nM; EC50 [9]: > 100000 nM
Clc1cccc2c1nc1n2C[C@@]2(CN3CCC2CC3)O1	0.3	16	4	–
FC(F)(F)c1cccc2c1nc1n2C[C@@]2(CN3CCC2CC3)O1	0.5	22	11	–
